Literature values in patent US7803735B2, “Hydroconversion processes employing multi-metallic catalysts and method for making thereof” (Chevron U.S.A. Inc., priority 2007, dated 2010).

Test system: rats
Details: single oral dose to rats; chelating agent (ligand) L

Q: Which LD50 does the source give for O=CC(=O)O [glyoxylic] here?
A: The LD50 was 3000 mg/kg.
